In patent publication US20260151398A1, “COMPOUNDS FOR REDUCING CHOLESTEROL AND TREATING LIVER AND KIDNEY DISEASE” (McMaster University, priority 2021, published 2026):
“Also recorded” adds a separate entry of the source.

What was measured:
HepG2 cells = assay: DiI-LDL uptake assay in HepG2 cells; type: cell-based, human
Protocol: During the last 5 h of treatment (h 19 to 24) cells were exposed to DiI-LDL (10 μg/ml) and then washed with two changes of pre-warmed (37° C.) HBSS containing 20 mM HEPES prior to analysis.
The uptake and accumulation of DiI-LDL was then quantified using a fluorescent spectrophotometer (Molecular Devices). […] Live-cell staining of the LDLR was also performed in HepG2 cells exposed to DiI-LDL (FIG. 11 D).

total secreted protein = assay: Coomassie stain of medium for total secreted protein; type: cell-based; settings: Coomassie stain of medium of CF-treated cells
Protocol: Cultured immortalized hepatocytes known to express and secrete PCSK9 (Lebeau, P., et al., 2017), including HuH7 and HepG2 cells, as well as primary mouse- and human-hepatocytes (PMH and PHH, respectively), were treated with CF for 24 h and assessed for PCSK9 expression via immunoblots and real-time PCR (FIG. 1 A to D). […] Given that sterol deprivation represents another well-established promoter of SREBP2 activation (Lebeau, P., et al., 2017), cells were also treated with CF in the presence and absence of U18666A (U18) that depletes intracellular sterols. […] Next, HepG2 cells were treated with an increasing dose of CF.

PCSK9 = assay: Secreted PCSK9 levels in HepG2 cells (ELISA); type: cell-based, human
Protocol: HuH7 and HepG2 cells were routinely grown in complete Dulbecco's Modified Eagle's Medium (Gibco, Thermofisher Scientific) supplemented with 10% fetal bovine serum (Sigma-Aldrich) and 100 U/ml of penicillin and streptomycin (Sigma-Aldrich). […] All cell treatments were carried out for 24 h unless otherwise stated. Cells were transfected with a cocktail consisting of plasmid DNA (1 μg), X-tremeGENE HP (3 μl; Thermofisher Scientific) and opti-MEM (100 μl; Thermofischer Scientific) per 1 ml complete medium containing plated cells. Human PCSK9 was overexpressed using the bicistronic pIRES-EGFP plasmid; calnexin using the mPA-GFP-N1 plasmid. To block the expression of GRP78 and CD36, siGENOME smartpool siRNA was purchased from GE Dharmacon (M-008198-02 and L-010206-00-0005 respectively) and transfected using lipofectamine RNAiMAX as per manufacturer's protocol.
Secreted PCSK9 levels were assessed directly in cell culture medium of cells grown in FBS-free medium for 24 h or in the serum isolated from either mice or human subjects. Mouse PCSK9 was measured using the Quantikinine® ELISA kit (#MCP900, R&D Systems) and human PCSK9 using the PCSK9 Quantikinine® ELISA kit (#DCP900, R&D Systems). Serum ApoB levels were also quantified using ELISAs (#DAPB00, R&D Systems). Serum samples were diluted as per manufacturer's instructions.
CF, however, is a well-characterized compound having several health benefits with few known adverse effects. Achieving an optimal level of PCSK9 inhibition absent of the neuro-excitatory effect of CF, however, may be a challenge for the long-term clinical application of these findings. […] See Table 6 for the structure activity relationships of several other known xanthine-based compounds explored at varying doses in HepG2 cells for 24 h.

cytosolic Ca^2+ levels = assay: Cytosolic Ca2+ in hepatocytes (Fura-2-AM); type: cell-based, human; settings: immortalized HuH7 hepatocytes, listed as CF
Protocol: Intracellular Ca^2+ in Huh7 and HepG2 cells was measured using a high-affinity Ca^2+ indicator, Fura-2-AM (Thermofisher Scientific). ER Ca^2+ levels were assessed using the low-affinity Ca^2+ indicator, Mag-Fluo-4, and via transfection of cells with D1ER. The D1ER plasmid encodes an ER-resident calcium binding protein linked to a fluorescent protein and increases in fluorescence intensity upon Ca^2+ binding (7). […] Cells were then washed and incubated with Fura-2-AM (2 μM) or Mag-Fluo-4 (2 μM) for 45 minutes at 37° C. in HBSS containing 20 mM HEPES and 2% pluronic acid v/v (Thermofisher Scientific).
To test this hypothesis, cytosolic Ca^2+ levels in CF-treated cells were first examined using the high-affinity fluorescent Ca^2+ indicator, Fura-2-AM. […] The fluorescence intensity of cells treated with CF and control agents, TG and CDN, was assessed using a fluorescent spectrophotometer and visualized using a fluorescent microscope (FIG. 6 A). […] ER Ca^2+ content was also assessed indirectly with the high affinity Ca^2+ dye, fura-2-AM (FIG. 6 B).

HepG2 hepatocytes = assay: LDH cytotoxicity assay in HepG2 hepatocytes; type: cell-based, human; settings: cultured HepG2 hepatocytes
Protocol: Secreted PCSK9 levels were assessed using ELISAs and mRNA transcript via real-time PCR. […] Secreted PCSK9, as well as PCSK9 mRNA and SREBP2 mRNA were assessed in these cells. (E) The cytotoxicity of these agents was examined using an LDH assay. […] (G) The uptake of DiI-LDL was also quantified in these cells using a spectrophotometer. Values are presented as the mean and error bars as SD. *, p<0.05 vs. vehicle; NS, non-significant.

[1] = system: HMGR, SREBP1, hepatocyte nuclear factor 1α; assay: mRNA expression of HMGR, SREBP1 and hepatocyte nuclear factor 1α in hepatocytes; type: cell-based, mouse
Protocol: RNA purification/isolation was performed using RNeasy mini kits (Qiagen) and normalized to 2 μg RNA using a NanoDrop® spectrophotometer. Samples were then reverse transcribed into cDNA using Superscript Vilo cDNA Synthesis kit (Thermofisher Scientific). Real-time PCR was executed with Fast SYBR Green (Thermo Fisher Scientific) using the ΔΔct method on the ViiA7 real-time PCR platform (Thermofisher Scientific).
Therefore, the effect of CF on TG-; induced SREBP2 activation was examined. […] SREBP2 activity was then examined at the protein level in HuH7 cells transfected with a plasmid encoding GFP driven by the sterol regulatory element (SRE-GFP; FIG. 2E to G). […] GFP expression was also visualized via immunofluorescent staining and quantified using ImageJ Software.

[2] = system: Pcsk9+/+ and Pcsk9−/− mice; settings: CF 8 h
Protocol: All animal studies were carried out in 8 h-fasted male wild-type, Pcsk9^−/− or Ampkβ1^−/− mice on the C57BL/6J background. CF (25-100 mg/kg-8 h) and CDN (50 mg/kg) treatments were administered via intraperitoneal injection unless specified otherwise. Primary mouse hepatocytes were isolated using a two-step process with EGTA ([…] in HEPES buffer, Sigma Aldrich) and collagenase (0.05% in HEPES buffer, Sigma Aldrich) in 12-week-old male mice on the C57BL/6J background. Cells were then washed, centrifuged, and plated following isolation in cell strainers. Hepatosure® 100-donor pooled primary human hepatocytes were purchased from Xenotech. Primary hepatocytes were regularly grown in William's E medium (Gibco, Thermo Fisher Scientific) containing 10% fetal bovine serum, 100 IU/ml penicillin, and 100 µg/ml streptomycin.

With `Cn1c(=O)c2c(ncn2C)n(C)c1=O` [caffeine, 1,3,7-Trimethylxanthine] the “LDLc (DiI-LDL) uptake” value (HepG2 cells; HepG2, 24 h treatment, DiI-LDL 5 h) was “increased LDLc uptake”, the “LDLc uptake in PCSK9 shRNA cells” value (HepG2 cells; HepG2 stably transfected with PCSK9 shRNA, CF 200 μM) was “failed to significantly increase LDLc uptake” and the global protein secretion (total secreted protein) was “not affecting global protein secretion”. The “PCSK9 secretion from cells transfected with CMV-driven PCSK9 vector” value (PCSK9; HepG2, CF 1 mM, listed as CF) was “failed to block the secretion of PCSK9; also recorded: does not affect CMV-driven PCSK9 expression”, the “PCSK9 secretion in Ca^2+-deficient medium” value (PCSK9; HepG2, Ca^2+-deficient medium 48 h) was “failed to antagonize PCSK9 secretion” and the “cytosolic Ca^2+ levels” value (cytosolic Ca^2+ levels) was “significantly increased cytosolic Ca^2+ levels; also recorded: increases cytosolic Ca^2+ levels”. The “cytotoxicity (LDH assay)” value (HepG2 hepatocytes) was “did not exhibit cytotoxic properties”, the SREBP1 expression ([1]; PMH) was “blocked the expression” and the “hepatocyte nuclear factor 1α expression” value ([1]; absence of TG) was “did not yield a significant difference”. The HMGR expression ([1]; mouse hepatocytes) was “blocked the expression” and the “hepatic and serum DiI fluorescence in Pcsk9−/− mice” value [2] was “failed to affect these parameters”.
